ChEMBL document CHEMBL2406977, “The discovery of PLK4 inhibitors: (E)-3-((1H-Indazol-6-yl)methylene)indolin-2-ones as novel antiproliferative agents” (J Med Chem, 2013)

Key:
Cytochrome P450 1A2 = biological target: T1, Cytochrome P450 1A2 (Homo sapiens, UniProt P05177); test: Inhibition of CYP1A2 (unknown origin) using CEC as substrate after 15 mins by fluorescence assay; format: ADME
T1 sequence (P05177 whole entry): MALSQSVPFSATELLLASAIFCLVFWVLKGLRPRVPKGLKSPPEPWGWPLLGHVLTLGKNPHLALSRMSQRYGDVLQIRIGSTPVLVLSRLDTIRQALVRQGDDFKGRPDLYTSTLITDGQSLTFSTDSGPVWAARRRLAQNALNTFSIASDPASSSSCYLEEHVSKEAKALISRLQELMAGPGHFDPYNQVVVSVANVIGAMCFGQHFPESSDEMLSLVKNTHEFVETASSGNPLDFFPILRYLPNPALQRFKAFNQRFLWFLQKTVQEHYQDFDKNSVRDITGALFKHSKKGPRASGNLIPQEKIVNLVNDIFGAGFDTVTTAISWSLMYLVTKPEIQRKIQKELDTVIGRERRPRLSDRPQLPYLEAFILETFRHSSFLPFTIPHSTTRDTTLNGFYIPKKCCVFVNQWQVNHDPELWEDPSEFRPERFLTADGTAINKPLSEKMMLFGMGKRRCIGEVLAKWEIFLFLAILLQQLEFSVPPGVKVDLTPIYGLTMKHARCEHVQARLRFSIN

[1] = biological target: T2, Serine/threonine-protein kinase PLK4 (Homo sapiens, UniProt O00444); test: Inhibition of N-terminal GST-tagged human PLK4 (1 to 391 amino acids) expressed in Escherichia coli using TMB as substrate after 30 mins by indirect ELISA assay
T2 sequence (O00444 whole entry): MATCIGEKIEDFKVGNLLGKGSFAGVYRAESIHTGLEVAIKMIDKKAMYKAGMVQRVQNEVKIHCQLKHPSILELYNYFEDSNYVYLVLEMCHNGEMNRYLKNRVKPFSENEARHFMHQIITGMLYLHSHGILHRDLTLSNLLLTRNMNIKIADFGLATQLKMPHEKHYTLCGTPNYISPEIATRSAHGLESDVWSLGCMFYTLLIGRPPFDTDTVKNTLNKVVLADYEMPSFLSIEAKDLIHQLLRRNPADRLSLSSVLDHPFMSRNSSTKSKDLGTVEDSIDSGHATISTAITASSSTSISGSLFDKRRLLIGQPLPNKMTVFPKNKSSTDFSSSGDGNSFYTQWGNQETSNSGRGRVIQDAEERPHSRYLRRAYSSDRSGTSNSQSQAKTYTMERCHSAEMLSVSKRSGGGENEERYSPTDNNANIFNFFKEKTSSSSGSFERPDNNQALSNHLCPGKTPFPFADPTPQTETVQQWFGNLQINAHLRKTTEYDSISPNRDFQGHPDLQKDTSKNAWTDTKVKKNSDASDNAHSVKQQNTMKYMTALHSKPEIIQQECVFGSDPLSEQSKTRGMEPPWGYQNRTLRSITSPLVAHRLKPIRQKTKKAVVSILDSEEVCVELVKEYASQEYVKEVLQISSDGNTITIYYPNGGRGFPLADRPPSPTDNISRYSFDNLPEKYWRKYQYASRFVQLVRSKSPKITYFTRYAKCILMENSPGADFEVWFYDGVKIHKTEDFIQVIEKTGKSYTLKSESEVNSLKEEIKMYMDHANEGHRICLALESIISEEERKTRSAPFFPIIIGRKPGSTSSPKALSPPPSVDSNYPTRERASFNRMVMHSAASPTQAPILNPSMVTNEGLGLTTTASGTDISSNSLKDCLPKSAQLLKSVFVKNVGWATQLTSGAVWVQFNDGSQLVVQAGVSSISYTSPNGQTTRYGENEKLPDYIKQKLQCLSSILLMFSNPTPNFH

[2] = Permeability of the compound at pH 7.4 by PAMPA; format: ADME; conditions: read-out: permeability
MDA-MB-468 = test: Antitumor activity against human MDA-MB-468 cells xenografted in CB-17 SCID mouse assessed as reduction in tumor size at 25 mg/kg, ip qd for 21 days relative to control; format: functional; conditions: MDA-MB-468, ip, 504 h, route intraperitoneal, read-out: TGI
[3] = Cmax in SCID mouse at 50 mg/kg, ip; format: ADME, organism-based; parameters: dose 50 mg/kg, route intraperitoneal; conditions: in vivo

IC50 (Cytochrome P450 1A2): > 10000 nM
IC50 [1]: 0.61 nM
Papp [2]: 164 ×10⁻⁶ cm/s
Cmax [3]: 92 ng/mL
SMILES: COc1ccc2c(c1)/C(=C\c1ccc3c(/C=C/c4ccc(N5CCN(C)CC5)nc4)n[nH]c3c1)C(=O)N2
inhibition in vivo at 25 mg/kg (MDA-MB-468): 70%
